Assay results from US20250376473A1, “PRMTS INHIBITOR AND USE THEREOF” (Cytosinlab Therapeutics Co., Ltd., priority 2022, published 2025).
Like-named read-outs stand apart in the source and are kept apart here.

What was measured:
[1] = test system: HCT116-MTAP-KO cells (HCT116 MTAP null); assay: Proliferation inhibition of HCT116 MTAP-KO cells in vitro (CellTiter Glo); format: cell-based; conditions: 6 days, 9 concentrations starting from 3 μM, read-out: Cell proliferation inhibition rate HCT116 MTAP null IC50 (nm)
Text: (§1) Biological Test Example 2 Proliferation Inhibition of HCT116 and HCT116 MTAP-KO Cells in Vitro
(§2) HCT116 cell line was purchased from the Chinese Academy of Sciences Cell Bank, and the MTAP gene was knocked out by CRISPR/Cas9 technology to obtain HCT116-MTAP-KO cell line.
(§3) McCoy's 5A medium (Gibco, catalog No. 16600082), fetal bovine serum (Gibco, catalog No. 10099141C), penicillin-streptomycin double antibody (Gibco, catalog No. 15140122), pancreatic enzyme (Gibco, catalog No. 25200056), CellTiter Glo assay kit (Promega, catalog No. G7572), 384-well transparent flat-bottomed black walled cell culture plate (Corning, catalog No. 3764), ultra micro sampler (Tecan, catalog No.D300e), Multimode reader (Biotek, catalog No. SynergyHTX)
(§4) 1. Cell culture: HCT116 and HCT116-MTAP-KO cells were cultured in McCoy'5A medium+10% fetal bovine serum+1% penicillin-streptomycin double antibody; to ensure that they were always in the logarithmic growth phase and the cell viability greater than 95%.
(§5) 2. Compound concentration gradient preparation: The compound to be tested was added to a 384-well plate using an ultra micro sampler, starting from 30 μM (HCT116 cells) or 3 μM (HCT116-MTAP-KO cells), and diluted with DMSO at 3 times for a total of 9 concentrations and set up three duplicate wells.
(§6) 3. Treatment of cells with compounds: Trypsin-digested HCT116 or HCT116-MTAP-KO cell suspension was added to the 384-well plates spotted with the compounds to be tested at 40 μL per well, i.e., 100 cells per well, and the final concentration of DMSO was 0.4%. The cell culture plate was incubated at 37° C. in a 5% CO2 incubator for 6 days.
(§7) 4. Detection: 20 μL of CellTiter Glo reagent was added to each well of the cell culture plate and incubated at room temperature for 30 minutes. A multimode reader was used to detect the luminescence signal at […].
(§8) The data was fitted with GraphPad Prism 8.0 software using a four parameter inhibitor-reaction model to obtain the IC50 value (half inhibitory concentration) of the test compounds.

HCT116 MTAP WT cells = assay: Proliferation inhibition of HCT116 cells in vitro (CellTiter Glo); format: cell-based; conditions: 6 days, 9 concentrations starting from 30 μM, read-out: Cell proliferation inhibition rate HCT116 MTAP WT IC50 (nm)
Text: as §1, §2, §3, §4, §5, §6, §7, §8

| SMILES | IC50 ([1]; HCT116-MTAP null, 144 h) [nM] | IC50 (HCT116 MTAP WT cells; Homo sapiens, HCT-116, 144 h) [nM] | IC50 [1] [nM] | IC50 (HCT116 MTAP WT cells) [nM] |
| --- | --- | --- | --- | --- |
| Cc1ncc2c(N)nc3ccc(C(=O)N(Cc4ccc(C(F)(F)F)cn4)C(C)c4ncccn4)cc3n12 (centres unmarked) [Example 2] | 100 to 1000 | 1000 to 10000 |  |  |
| Cc1nc(C)n2c1c(N)nc1ccc(C(=O)N(Cc3ccc(C(F)(F)F)cn3)C(C)c3ncccn3)cc12 (centres unmarked) [Example 3] | < 100 | 1000 to 10000 |  |  |
| CCN(Cc1ccc(C(F)(F)F)cn1)C(=O)c1cc2c(cn1)nc(N)c1cnc(C)n12 [Example 9] | < 100 | 1000 to 10000 |  |  |
| Cc1ccc2c(N)nc3ccc(C(=O)N(Cc4ccc(C(F)(F)F)cn4)C(C)c4ncccn4)cc3n12 (centres unmarked) [Example 12] | 100 to 1000 | 1000 to 10000 |  |  |
| Cc1nc(C)n2c1c(N)nc1ccc(C(=O)N(Cc3ccc(C(F)(F)F)cn3)C(C)c3ncccn3)cc12 (centres unmarked) [Example 14] |  |  | < 100 | 1000 to 10000 |
| CCN(Cc1ccc(C(F)(F)F)cn1)C(=O)c1ccc2nc(N)c3c(C)nc(C)n3c2c1 [Example 15, 4-Amino-N-ethyl-1,3-dimethyl-N-((5-trifluoromethyl)pyridin-2-ylmethyl) imidazolo[1,5-a]quinoxalin-8-carboxamide] | 100 to 1000 | 1000 to 10000 |  |  |
| Cc1ncc2c(N)nc3cnc(C(=O)N(Cc4ccc(C(F)(F)F)cn4)C(C)c4ncccn4)cc3n12 (centres unmarked) [Example 16] | 100 to 1000 | 1000 to 10000 |  |  |
| CCN(Cc1ccc(C(F)(F)F)cn1)C(=O)c1cc2c(cc1F)nc(N)c1cnc(C)n12 [Example 18] | < 100 | 1000 to 10000 |  |  |
| COCCN(Cc1cn2ccccc2n1)C(=O)c1cc2c(cc1F)nc(N)c1cnc(C)n12 [Example 27] | < 100 | 100 to 1000 |  |  |
| Cc1cn2c(n1)c(N)nc1ccc(C(=O)N3[C@H](C)COC[C@@H]3c3cn4ccccc4n3)cc12 [Example 29] | 100 to 1000 | 1000 to 10000 |  |  |
| Cc1cn2c(n1)c(N)nc1cc(F)c(C(=O)N3[C@H](C)COC[C@@H]3c3cn4cc(C(F)(F)F)ccc4n3)cc12 [Example 31] | < 100 | 100 to 1000 |  |  |
| Cc1ncc2c(N)nc3cc(F)c(C(=O)N4C(C)COC[C@@H]4c4ncc(C(F)(F)F)cc4F)cc3n12 (some centres unmarked) [Example 34] | < 100 | 1000 to 10000 |  |  |
| Cc1ncc2c(N)nc3cc(F)c(C(=O)N4[C@H](C)COC[C@@H]4c4cn5ccccc5n4)cc3n12 [Example 38] | 100 to 1000 | 1000 to 10000 |  |  |
| Cc1ncc2c(N)nc3cc(F)c(C(=O)N(C)C4COc5cc(Br)ccc54)cc3n12 (centres unmarked) [Example 40] | 100 to 1000 | 1000 to 10000 |  |  |
| Cc1ncc2c(N)nc3cc(F)c(C(=O)N(C)C4COc5cc(-c6cnn(C(F)(F)F)c6)ccc54)cc3n12 (centres unmarked) [Example 46] | 1000 to 10000 | 100 to 1000 |  |  |
| Cc1ncc2c(N)nc3cc(F)c(C(=O)N(Cc4cn5cc(C#N)ccc5n4)c4cnn(C)c4)cc3n12 [Example 63] | 1000 to 10000 | 1000 to 10000 |  |  |
| Cc1ncc2c(N)nc3cc(F)c(C(=O)N(Cc4cn5ccccc5n4)C4CCN(C)C4)cc3n12 (centres unmarked) [Example 65] | 1000 to 10000 | 1000 to 10000 |  |  |
| Cc1ncc2c(N)nc3cc(F)c(C(=O)N(Cc4cn5ccc(C(F)(F)F)cc5n4)c4cnn(C)c4)cc3n12 [Example 70] | 100 to 1000 | 1000 to 10000 |  |  |
| CCN(Cc1nc(-c2ccc(C(F)(F)F)nc2)cs1)C(=O)c1cc2c(cc1F)nc(N)c1cnc(C)n12 [Example 73] | 100 to 1000 | 1000 to 10000 |  |  |
| CCN(C(=O)c1cc2c(cc1F)nc(N)c1cnc(C)n12)C1COc2cc(-c3cnn(C(F)(F)F)c3)ccc21 (centres unmarked) [Example 75] | 100 to 1000 | 1000 to 10000 |  |  |
| CCN(Cc1nc(-c2cnn(C(F)(F)F)c2)cs1)C(=O)c1cc2c(cc1F)nc(N)c1cnc(C)n12 [Example 80] | 100 to 1000 | 1000 to 10000 |  |  |
| CCN(Cc1ccc(C(F)(F)F)nn1)C(=O)c1cc2c(cc1F)nc(N)c1cnc(C)n12 [Example 81] | 100 to 1000 | 1000 to 10000 |  |  |
| Cc1ncc2c(N)nc3cc(F)c(C(=O)N(Cc4ccc(C(F)(F)F)cn4)c4cnn(C)n4)cc3n12 [Example 83] | < 100 | 1000 to 10000 |  |  |
| CCN(Cc1ccc(OC2CC2)cn1)C(=O)c1cc2c(cc1F)nc(N)c1cnc(C)n12 [Example 85] | < 100 | 1000 to 10000 |  |  |
| Cc1ncc2c(N)nc3cc(F)c(C(=O)N4C(C)COCC4c4ccc(OC5CC5)cc4)cc3n12 (centres unmarked) [Example 87] | < 100 | 1000 to 10000 |  |  |
